Measurements published in ChEMBL document CHEMBL1240356, “Efficacy profiles of daptomycin for treatment of invasive and noninvasive pulmonary infections with Streptococcus pneumoniae” (2010).
Active and inactive are the calls of the source. The calls are words filed in the database; no cut-off is given here.

How the values were obtained:
[1] = system: Streptococcus pneumoniae; assay: Antibacterial activity against high dose 1.5 x 10^7 CFU Streptococcus pneumoniae serotype 2 infected in semitherapeutic C57BL/6 mouse model assessed as bacterial count in lung at 20 mg/kg, ip measured after 1 day post infection; type: functional; conditions: route intraperitoneal
[2] = system: Streptococcus pneumoniae; assay: Antibacterial activity against high dose 1.5 x 10^7 CFU Streptococcus pneumoniae serotype 2 infected in therapeutic C57BL/6 mouse model assessed as bacterial count in lung at 20 mg/kg, ip measured after 3 days post infection; type: functional; conditions: route intraperitoneal
[3] = system: Streptococcus pneumoniae; assay: Antibacterial activity against high dose 1.5 x 10^7 CFU Streptococcus pneumoniae serotype 2 infected in therapeutic C57BL/6 mouse model assessed as bacterial count in blood at 20 mg/kg, ip measured after 3 days post infection; type: functional; conditions: route intraperitoneal
[4] = system: Streptococcus pneumoniae; assay: Antibacterial activity against high dose 1.5 x 10^7 CFU Streptococcus pneumoniae serotype 2 infected in therapeutic C57BL/6 mouse model assessed as reduction of bacteremia at 20 mg/kg, ip measured after 4 days post infection; type: functional, organism-based; parameters: dose 20 mg/kg
[5] = system: Streptococcus pneumoniae; assay: Antibacterial activity against high dose 1.5 x 10^7 CFU Streptococcus pneumoniae serotype 19 infected in semitherapeutic C57BL/6 mouse model assessed as bacterial count in lung at 20 mg/kg, ip measured after 1 day post infection; type: functional; conditions: route intraperitoneal
[6] = system: Streptococcus pneumoniae; assay: Antibacterial activity against high dose 1.5 x 10^7 CFU Streptococcus pneumoniae serotype 19 infected in semitherapeutic C57BL/6 mouse model assessed as reduction of bacteremia at 20 mg/kg, ip measured after 1 day post infection; type: functional, organism-based; parameters: dose 20 mg/kg
[7] = system: Streptococcus pneumoniae; assay: Antibacterial activity against high dose 1.5 x 10^7 CFU Streptococcus pneumoniae serotype 19 infected in semitherapeutic C57BL/6 mouse model assessed as reduction of bacteremia at 20 mg/kg, ip measured after 2 days post infection; type: functional, organism-based; parameters: dose 20 mg/kg
[8] = system: Streptococcus pneumoniae; assay: Antibacterial activity against 1.5 x 10^7 CFU Streptococcus pneumoniae serotype 2 infected in semitherapeutic C57BL/6 mouse model assessed as reduction of bacteremia at 20 mg/kg, ip measured after 1 day post infection; type: functional, organism-based; parameters: dose 20 mg/kg
[9] = system: Streptococcus pneumoniae; assay: Antibacterial activity against 1.5 x 10^7 CFU Streptococcus pneumoniae serotype 2 infected in semitherapeutic C57BL/6 mouse model assessed as reduction of bacteremia at 20 mg/kg, ip measured after 2 days post infection; type: functional, organism-based; parameters: dose 20 mg/kg
[10] = system: Streptococcus pneumoniae; assay: Antibacterial activity against 1.5 x 10^7 CFU Streptococcus pneumoniae serotype 19 infected in therapeutic C57BL/6 mouse model assessed as survival rate at 20 mg/kg, ip qd beginning at time of infection measured after 6 days post infection; type: functional; conditions: route intraperitoneal

Work on `CO/N=C(\C(=O)N[C@@H]1C(=O)N2C(C(=O)O)=C(CSc3nc(=O)c(O)nn3C)CS[C@H]12)c1csc(N)n1` [CEFTRIAXONE] yielded a log10cfu [1] of 0.8, a log10cfu [2] of 4.6 and a log10cfu [3] of 3.3. For the same compound, the Activity [4] was “Active”, the log10cfu [5] was 0.5 and the Activity [6] was “Active”. For the same compound, the Activity [7] was “Active”, the Activity [8] was “Active” and the Activity [9] was “Active”. For the same compound, the Activity [10] was 100%.
